Experimental data published in patent publication US8765748B2, “Indazolyl, benzimidazolyl, benzotriazolyl substituted indolinone derivatives as kinase inhibitors useful in the treatment of cancer” (University Health Network, priority 2007, dated 2014).
Like-named read-outs stand apart in the source and are kept apart here.

Key:
human PLK4 = molecular target: T1, human PLK4 (Homo sapiens, UniProt O00444); test: PLK4 Inhibition Assay (indirect ELISA); format: biochemical; settings: 15 μM ATP, 4 nM GST-PLK4; read-out: PLK4 IC50 Ranges
T1 construct: amino terminal GST fusion of residues 1-391 of human PLK4; made in house; host or cells: E. coli
T1 sequence (O00444 1-391): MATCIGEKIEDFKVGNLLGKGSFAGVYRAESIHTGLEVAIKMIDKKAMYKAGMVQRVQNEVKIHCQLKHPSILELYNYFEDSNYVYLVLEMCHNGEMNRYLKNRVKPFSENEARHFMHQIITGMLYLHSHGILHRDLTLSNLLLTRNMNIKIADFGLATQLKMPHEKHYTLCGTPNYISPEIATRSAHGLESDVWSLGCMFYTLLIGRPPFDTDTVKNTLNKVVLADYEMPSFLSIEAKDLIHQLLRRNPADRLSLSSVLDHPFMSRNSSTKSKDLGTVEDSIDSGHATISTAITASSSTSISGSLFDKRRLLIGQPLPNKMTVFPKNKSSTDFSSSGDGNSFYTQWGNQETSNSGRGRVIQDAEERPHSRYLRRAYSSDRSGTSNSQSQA
Procedure, shortened: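 Dephosphorylated (lambda phosphatase) GST-PLK4 activity read by indirect ELISA. Compounds were pre-incubated with enzyme for 15 minutes before ATP was added. IC50 came from a non-linear 4-point logistic fit.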

Aurora A = molecular target: T2, Aurora A (Homo sapiens, UniProt O14965); test: Aurora A Inhibition Assay (Z-Lyte); format: biochemical; settings: for IC50: 20 μM ATP, 12 nM Aurora A, read-out: Aurora A IC50 Ranges
T2 construct: purchased Invitrogen PV3612
T2 sequence (O14965 1-403): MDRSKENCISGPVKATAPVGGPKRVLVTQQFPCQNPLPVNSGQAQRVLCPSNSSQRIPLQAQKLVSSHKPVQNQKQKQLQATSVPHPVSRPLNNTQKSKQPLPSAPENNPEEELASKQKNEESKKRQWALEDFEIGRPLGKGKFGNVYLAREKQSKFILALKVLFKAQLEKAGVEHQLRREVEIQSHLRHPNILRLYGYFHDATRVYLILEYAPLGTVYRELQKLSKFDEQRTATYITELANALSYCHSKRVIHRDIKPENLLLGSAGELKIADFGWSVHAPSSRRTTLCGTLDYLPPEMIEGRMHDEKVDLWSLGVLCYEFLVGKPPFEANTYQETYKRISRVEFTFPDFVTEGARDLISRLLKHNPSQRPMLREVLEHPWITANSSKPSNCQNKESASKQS
Description: (§1) Aurora A inhibition was determined using the Z-Lyte assay kit from Invitrogen. The assay was performed using the recommended manufacturer's instructions with 20 μM ATP and 12 nM Aurora A (Invitrogen cat #PV3612). The % inhibition values were determined according to the manufacturer's directions and IC50 values were obtained using a non-linear 4 point logistic curve fit (XLfit4, IDBS)

PLK1 = molecular target: T3, PLK1 (Homo sapiens, UniProt P53350); test: PLK1 Inhibition Assay (Z-Lyte); format: biochemical; settings: for inhibition at 10 µM: 10 μM compound, read-out: PLK1 relative inhibition percentage at a dose of 10 μM; for IC50: 25 μM ATP, 8 nM PLK1, read-out: PLK1 IC50 Ranges
T3 construct: purchased Invitrogen PV3501
Description: PLK1 inhibition was determined using the Z-Lyte assay kit from Invitrogen (cat #PV3802). […] The % inhibition values were determined according to the manufacturer's directions and IC50 values were obtained using a non-linear 4 point logistic curve fit (XLfit4, IDBS)

PLK2 = molecular target: T4, PLK2 (Homo sapiens, UniProt Q9NYY3); test: PLK2 Inhibition Assay (Z-Lyte); format: biochemical; settings: 10 μM compound; read-out: PLK2 relative inhibition percentage at a dose of 10 μM
T4 construct: purchased Invitrogen PV4204
Description: as §1, with “PLK2” for “Aurora A”, “Invitrogen (cat #PV3802).” for “Invitrogen.”, “60” for “20”, “133” for “12”, “#PV4204).” for “#PV3612).”

Aurora B = molecular target: T5, Aurora B (Homo sapiens, UniProt Q96GD4); test: Aurora B Inhibition Assay (Z-Lyte); format: biochemical; settings: 128 μM ATP, 28 nM Aurora B; read-out: Aurora B IC50 Ranges
T5 construct: purchased Invitrogen PV3970
Description: as §1, with “Aurora B” for “Aurora A”, “with 128” for “with 20”, “and 28” for “and 12”, “cat #PV3970).” for “cat #PV3612).”

[1] = system: human mammary epithelial primary cells (HMEC); test: Cell growth inhibition, Sulforhodamine B assay (SRB); format: cell-based; settings: 120 h, 5 days culture, read-out: Cell Line GI50 Range, HMEC
Description: (§2) Breast cancer cells (MCF-7, MDA-MB-468, HCC1954), colon cancer cells (SW620) and lung cancer cells (A549), together with human mammary epithelial primary cells (HMEC), were seeded (1000 to 4000 per 80 μl per well depending on the cell growth rate) into 96 well plates, 24 hours before compound overlay. Compounds were prepared as 10 mM stock solutions in 100% DMSO which were diluted with DMEM (Dulbecco's Modified Eagle's Medium) cell growth Medium (Invitrogen, Burlington, ON, Canada) containing 10% FBS (Fetal Bovine Serum) to concentrations ranging from 50 nM to 250 μM. Aliquots (20 μl) from each concentration were overlaid to 80 μl of the pre-seeded cells in the 96 well plates to make final concentrations of 10 nM to 50 μM. The cells were cultured for 5 days before the Sulforhodamine B assay (SRB) was performed to determine the compound's cell growth inhibition activity.
(§3) Sulforhodamine B (purchased from Sigma, Oakville, ON, Canada) is a water-soluble dye that binds to the basic amino acids of the cellular proteins. Thus, colorimetric measurement of the bound dye provides an estimate of the total protein mass that is related to the cell number. the cells are fixed in situ by gently aspirating off the culture media and adding 50 μl ice cold 10% Tri-chloroacetic Acid (TCA) per well and incubate at 4° C. for 30-60 min, The plates are washed with water five times and allowed to air dry for 5 min. Addition of 50 μl 0.4% (w/v) SRB solution in 1% (v/v) acetic acid to each well and incubatation for 30 min at RT completes the staining reaction. Following staining, plates are washed four times with 1% acetic acid to remove unbound dye and then allowed to air dry for 5 min. The stain is solubilized with 100 μl of 10 mM Tris pH10.5 per well. Absorbance is read at 570 nm.
(§4) The percentage (%) of relative growth inhibition was calculated by comparing to DMSO treated only cells (100%). GI50's were determined for compounds with cytotoxic activity. The GI50 was calculated using GraphPad PRISM software (GraphPad Software, Inc., San Diego, Calif., USA).

[2] = system: HCC1954 basal breast cancer cell line; test: as above; format: cell-based; settings: Homo sapiens, HCC1954, 120 h, 5 days culture, read-out: Cell Line GI50 Range, HCC-1954
Description: as §2, §3, §4

SW620 colon cancer cells = test: as above; format: cell-based; settings: Homo sapiens, SW-620, 120 h, 5 days culture, read-out: Cell Line GI50 Range, SW-620
Description: as §2, §3, §4

[3] = system: MDA-MB-468 basal breast cancer cell line; test: as above; format: cell-based; settings: Homo sapiens
Description: as §2, §3, §4

[4] = system: MCF-7 luminal breast cancer cell line; test: as above; format: cell-based; settings: Homo sapiens
Description: as §2, §3, §4

A549 lung cancer cells = test: as above; format: cell-based; settings: Homo sapiens, A549, 120 h, 5 days culture, read-out: Cell Line GI50 Range, A-549
Description: as §2, §3, §4

[5] = system: T47 D breast cancer cell line; test: Cell growth inhibition, SRB assay, extended panel; format: cell-based; settings: Homo sapiens, T47D; read-out: GI50 on T47D Breast cancer cell line
Description: as §2, §3, §4
In addition to the cell lines tested as described above, selected compounds have been assayed against an extended panel. […] The sulforhodamine B assay (SRB) described above was use to assay test compounds against the extended panel (Table 9).

[6] = MDA-MB-468, 120 h, 5 days culture, SRB, read-out: Cell Line GI50 Range, MDA-MB-468
[7] = MCF7, 120 h, 5 days culture, SRB, read-out: Cell Line GI50 Range, MCF-7
[8] = MDA-MB-468, read-out: GI50 on MDA-MB-468 Breast cancer cell line
[9] = MCF7, read-out: GI50 on MCF-7 Breast cancer cell line

T4 sequence (Q9NYY3 whole entry): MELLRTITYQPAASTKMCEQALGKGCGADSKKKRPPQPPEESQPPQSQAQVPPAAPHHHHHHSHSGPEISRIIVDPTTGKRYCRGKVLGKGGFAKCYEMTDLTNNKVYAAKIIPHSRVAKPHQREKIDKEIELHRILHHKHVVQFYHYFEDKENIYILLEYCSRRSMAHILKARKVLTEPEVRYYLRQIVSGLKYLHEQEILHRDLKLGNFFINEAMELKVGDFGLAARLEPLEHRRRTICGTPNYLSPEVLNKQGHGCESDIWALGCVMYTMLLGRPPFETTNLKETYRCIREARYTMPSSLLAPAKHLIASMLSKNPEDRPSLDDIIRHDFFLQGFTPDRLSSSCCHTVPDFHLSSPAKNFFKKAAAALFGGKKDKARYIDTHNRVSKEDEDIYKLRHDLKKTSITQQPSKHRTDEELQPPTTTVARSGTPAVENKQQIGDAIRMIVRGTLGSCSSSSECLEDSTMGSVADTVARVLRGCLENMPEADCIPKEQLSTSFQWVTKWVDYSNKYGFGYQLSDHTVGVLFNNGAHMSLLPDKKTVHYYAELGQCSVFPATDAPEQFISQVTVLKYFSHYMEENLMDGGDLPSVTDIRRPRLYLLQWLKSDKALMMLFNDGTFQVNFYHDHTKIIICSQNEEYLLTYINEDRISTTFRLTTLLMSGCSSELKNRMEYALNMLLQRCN
T3 sequence (P53350 whole entry): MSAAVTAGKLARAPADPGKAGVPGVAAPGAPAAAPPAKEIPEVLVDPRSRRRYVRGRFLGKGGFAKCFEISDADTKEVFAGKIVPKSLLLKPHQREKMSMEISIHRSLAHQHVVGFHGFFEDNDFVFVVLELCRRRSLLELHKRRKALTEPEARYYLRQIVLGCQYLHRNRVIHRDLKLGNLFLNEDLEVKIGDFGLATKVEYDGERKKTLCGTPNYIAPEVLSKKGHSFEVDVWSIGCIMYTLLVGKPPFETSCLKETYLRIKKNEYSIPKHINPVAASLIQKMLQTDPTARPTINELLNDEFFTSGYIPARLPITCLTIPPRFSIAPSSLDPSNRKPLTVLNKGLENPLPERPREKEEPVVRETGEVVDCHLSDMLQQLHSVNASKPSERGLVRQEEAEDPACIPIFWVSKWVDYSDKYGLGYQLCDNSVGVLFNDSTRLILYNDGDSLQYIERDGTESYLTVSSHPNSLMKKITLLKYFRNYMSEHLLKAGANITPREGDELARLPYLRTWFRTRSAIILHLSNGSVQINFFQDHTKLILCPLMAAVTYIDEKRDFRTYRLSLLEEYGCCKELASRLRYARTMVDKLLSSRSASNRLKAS
T5 sequence (Q96GD4 whole entry): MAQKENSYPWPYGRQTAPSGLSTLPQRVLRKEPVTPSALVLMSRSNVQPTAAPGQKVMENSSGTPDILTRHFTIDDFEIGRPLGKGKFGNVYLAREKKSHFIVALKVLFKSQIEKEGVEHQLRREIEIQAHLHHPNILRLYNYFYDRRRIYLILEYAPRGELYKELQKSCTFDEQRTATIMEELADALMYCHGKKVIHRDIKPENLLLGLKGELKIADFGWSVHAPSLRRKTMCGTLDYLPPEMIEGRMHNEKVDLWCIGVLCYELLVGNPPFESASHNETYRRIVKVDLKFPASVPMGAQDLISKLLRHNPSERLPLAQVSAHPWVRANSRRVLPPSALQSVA

IC50 (human PLK4) [µM] | IC50 (Aurora A) [µM] | inhibition at 10 µM (PLK1) [%] | inhibition at 10 µM (PLK2) [%] | IC50 (Aurora B) [µM] | GI50 [2] [µM] | GI50 (SW620 colon cancer cells) [µM] | GI50 [3, 6] [µM] | GI50 [4, 7] [µM] | GI50 (A549 lung cancer cells) [µM] | inhibition at 10 µM (Aurora A; 10 μM compound, read-out: Aurora A relative inhibition percentage at a dose of 10 μM) [%] | IC50 (PLK1) [µM] | GI50 [5] [µM] | GI50 [3, 8] [µM] | GI50 [4, 9] [µM] | Structure (SMILES) | GI50 [1] [µM]
< 5 | 5 to 50 | < 50 | < 50 | < 5 | < 5 | < 5 | < 5 | < 5 |  |  |  |  |  |  | O=C1Nc2ccccc2/C1=C\c1ccc2c(-c3cccs3)n[nH]c2c1 [Example A91, (E)-3-((3-(thiophen-2-yl)-1H-indazol-6-yl)methylene)indolin-2-one] | 5 to 20
< 5 | < 5 | < 50 | < 50 | < 5 | 5 to 20 | < 5 | < 5 | < 5 | > 50 |  |  |  |  |  | O=C1Nc2ccc(Cl)cc2/C1=C\c1ccc2c(/C=C/c3ccncc3)n[nH]c2c1 [Example A84, (E)-5-chloro-3-((3-((E)-2-(pyridin-4-yl)vinyl)-1H-indazol-6-yl)methylene)indolin-2-one] | > 50
 |  | < 50 | < 50 |  | 5 to 20 | < 5 | < 5 | < 5 | 5 to 20 | > 50 |  |  |  |  | Cc1ncsc1/C=C/c1n[nH]c2cc(/C=C3/C(=O)Nc4ccccc43)ccc12 [Example A103, (E)-3-((3-((E)-2-(4-methylthiazol-5-yl)vinyl)-1H-indazol-6-yl)methyl-ene)indolin-2-one] | > 50
< 5 |  |  |  |  |  |  |  |  |  |  | < 5 | > 50 | > 50 | > 50 | CNS(=O)(=O)c1ccc2c(c1)C(=Cc1ccc3cn[nH]c3c1)C(=O)N2 (mixture of isomers) [Example A9, (E and Z)-3-((1H-indazol-6-yl)methylene)-N-methyl-2-oxoindoline-5-sulfonamide] | 
< 5 | < 5 | < 50 | < 50 |  |  |  |  |  |  |  |  | > 50 | > 50 | > 50 | CCOC(=O)/C=C/c1n[nH]c2cc(/C=C3/C(=O)Nc4ccc(OC)cc43)ccc12 [Example A111, (E)-ethyl 3-(6-((E)-(5-methoxy-2-oxoindolin-3-ylidene)methyl)-1H-indazol-3-yl)acrylate] | 
< 5 |  |  |  |  |  |  |  |  |  |  | 5 to 50 | > 50 | > 50 | > 50 | CNS(=O)(=O)c1ccc2c(c1)C(=Cc1ccc3[nH]nnc3c1)C(=O)N2 [Example A7, 3-((1H-benzo[d][1,2,3]triazol-5-yl)methylene)-N-methyl-2-oxoindoline-5-sulfonamide] | 
